Experimental data reported in ChEMBL document CHEMBL5725520, “Benzoisothiazole compounds and methods of treating schizophrenia” (2017).

Legend:
[1] = Dopamine D3 Receptor Binding Test: The experiment is carried out by the method according to Journal of Pharmacology and Experimental Therapeutics 2010, 333(1): 328. With [3H]methyl-spiperone (0.3 nM) as the ligand and (+)-butaclamol (10 LM) for determining non-specific binding, binding tests are carried out on human recombinant D3 receptor (expressed in CHO cells).; type: cell-based
D(2) dopamine receptor = D(2) dopamine receptor (Homo sapiens, UniProt P14416); experiment: Receptor Binding Test: 1. Experimental Materials:(1) D2 receptor Cell Transfection:This experiment utilizes the plasmid vector containing the gene of D2 receptor protein for transfecting HEK293 cells by calcium phosphate transfection method.
Chain of D(2) dopamine receptor (P14416 whole entry): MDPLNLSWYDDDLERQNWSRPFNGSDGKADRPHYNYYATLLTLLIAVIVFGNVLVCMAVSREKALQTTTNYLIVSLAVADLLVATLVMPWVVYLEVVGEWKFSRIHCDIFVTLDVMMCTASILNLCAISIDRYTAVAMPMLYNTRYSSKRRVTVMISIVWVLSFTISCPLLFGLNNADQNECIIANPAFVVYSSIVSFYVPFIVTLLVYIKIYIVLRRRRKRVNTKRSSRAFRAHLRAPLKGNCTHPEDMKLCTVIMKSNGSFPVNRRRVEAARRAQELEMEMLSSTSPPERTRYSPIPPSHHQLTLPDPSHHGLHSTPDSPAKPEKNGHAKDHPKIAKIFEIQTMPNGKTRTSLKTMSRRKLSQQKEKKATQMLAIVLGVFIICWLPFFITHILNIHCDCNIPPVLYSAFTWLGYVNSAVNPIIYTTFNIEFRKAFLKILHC

[2] = target: T1, 5-hydroxytryptamine receptor 1A (Homo sapiens, UniProt P08908); experiment: 5-HT1A Receptor Binding Test: 1. Experimental Materials:The isotopic ligand of 5-H1A receptor […] (purchased from PE Corporation), (+)5-hydroxytryptamine (purchased from Sigma Corporation), GF/B glassfiber filter (purchased from Whatman Corporation), fat-soluble scintillation fluid: PPO and POPOP (purchased from Shanghai No. 1 Reagent Factory), toluene (purchased from Sinopharm Chemical Reagent Co., Ltd), and Tris (imported and subpackaged).Cells: HEK-293 cells stably expressing 5-HT1A receptors as obtained by gene recombination are cultured for 3-5 days in cell culture medium DMEM supplemented with 10% serum. […] Total binding tube […] 20 μL D1 Binding Buffer 20 μL Cells 160 μL Non-specific tube […] 20 μL 5-HT(10−4) 20 μL Cells 160 μL Tube with the […] 20 μL compound to be tested The compound to be tested 20 μL Cells 160 μL The components are mixed to homogeneity, and then the above tubes are transferred to water bath at 30° C. (1 h), removed into ice bath immediately, and suction filtered on Harvest (with ice cold Tris eluate for 5 times).
T1 sequence (P08908 whole entry): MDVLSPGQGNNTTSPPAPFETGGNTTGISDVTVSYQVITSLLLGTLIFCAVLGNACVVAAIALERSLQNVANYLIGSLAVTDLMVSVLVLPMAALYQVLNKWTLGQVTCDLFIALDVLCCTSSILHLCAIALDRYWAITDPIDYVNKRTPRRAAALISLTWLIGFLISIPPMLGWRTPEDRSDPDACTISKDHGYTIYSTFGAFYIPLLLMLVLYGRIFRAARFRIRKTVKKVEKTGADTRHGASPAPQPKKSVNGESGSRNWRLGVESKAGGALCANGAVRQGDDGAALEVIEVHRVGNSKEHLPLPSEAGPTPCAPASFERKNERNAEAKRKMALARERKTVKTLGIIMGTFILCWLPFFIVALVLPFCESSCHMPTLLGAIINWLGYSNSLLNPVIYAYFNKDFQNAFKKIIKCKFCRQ

Structure (SMILES)	Ki [1] [nM]	Ki (D(2) dopamine receptor) [nM]	Ki [2] [nM]
COC(=O)N[C@H]1CC[C@H](CCN2CCN(c3nsc4ccccc34)CC2)CC1	0.1		
O=C(N[C@H]1CC[C@@H](CCN2CCN(c3nsc4ccccc34)CC2)CC1)OCc1ccccc1	1.03	0.98	2.14
O=C(N[C@H]1CC[C@H](CCN2CCN(c3nsc4ccccc34)CC2)CC1)OC1CC1	1.81	3.26	3.95
O=C(N[C@H]1CC[C@H](CCN2CCN(c3nsc4ccccc34)CC2)CC1)Oc1ccccc1	0.74		
Cc1ccccc1OC(=O)N[C@H]1CC[C@H](CCN2CCN(c3nsc4ccccc34)CC2)CC1	8.49		
CCOC(=O)N[C@H]1CC[C@@H](CCN2CCN(c3nsc4ccccc34)CC2)CC1	0.46	1.97	0.97
O=C(N[C@H]1CC[C@H](CCN2CCN(c3nsc4ccccc34)CC2)CC1)OC1CCCCC1	4.3	11.8	1.69
O=C(N[C@H]1CC[C@H](CCN2CCN(c3nsc4ccccc34)CC2)CC1)Oc1ccc(Cl)cc1	11.6		
COC(=O)N[C@H]1CC[C@@H](CCN2CCN(c3nsc4ccccc34)CC2)CC1	0.087		2.55
COc1cccc(OC(=O)N[C@H]2CC[C@H](CCN3CCN(c4nsc5ccccc45)CC3)CC2)c1	1.05		
CC(C)COC(=O)N[C@H]1CC[C@H](CCN2CCN(c3nsc4ccccc34)CC2)CC1	0.093		
O=C(N[C@H]1CC[C@H](CCN2CCN(c3nsc4ccccc34)CC2)CC1)Oc1ccc([N+](=O)[O-])cc1	7.12	12.4	
O=C(N[C@H]1CC[C@H](CCN2CCN(c3nsc4ccccc34)CC2)CC1)OCc1ccccc1	0.061	1.6	0.79
